Measurements reported in patent US20230340011A1 (Asteroid Therapeutics, priority 2022, published 2023).
Where two headings read alike, the source gives them in different places.

What was measured:
[1] = target: LXRβ (Homo sapiens (Human), UniProt P55055); experiment: In vitro assay LXRβ: PathHunter NHR CHO cells, LXRβ / Steroid Receptor Co-activator Peptide enzyme fragment complementation; type: cell-based
Procedure, shortened: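 Co-activator recruitment measured by chemiluminescence after signal generation. The CHO line carries full-length human LXRβ tagged with ProLink and an SRCP–enzyme acceptor fusion in the nucleus; cells sat overnight at 37° C before testing, in charcoal-dextran filtered serum medium with 1% final vehicle.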

[2] = target: SREBP-2 (Homo sapiens (Human), UniProt Q12772); experiment: In vitro assay SREBP-2: PathHunter U2OS SREBP-2 Nuclear Translocation Cell Line, U18666A-stimulated; type: cell-based; settings: PathHunter U2OS SREBP-2 nuclear translocation cells, U18666A 10 μM, overnight (16 hours)
[3] = PathHunter NHR CHO cells, full-length human LXRβ and SRCP, chemiluminescent signal, read-out: LXRβ PPI

LXRβ, sequence (P55055 whole entry, the tested form may be a part): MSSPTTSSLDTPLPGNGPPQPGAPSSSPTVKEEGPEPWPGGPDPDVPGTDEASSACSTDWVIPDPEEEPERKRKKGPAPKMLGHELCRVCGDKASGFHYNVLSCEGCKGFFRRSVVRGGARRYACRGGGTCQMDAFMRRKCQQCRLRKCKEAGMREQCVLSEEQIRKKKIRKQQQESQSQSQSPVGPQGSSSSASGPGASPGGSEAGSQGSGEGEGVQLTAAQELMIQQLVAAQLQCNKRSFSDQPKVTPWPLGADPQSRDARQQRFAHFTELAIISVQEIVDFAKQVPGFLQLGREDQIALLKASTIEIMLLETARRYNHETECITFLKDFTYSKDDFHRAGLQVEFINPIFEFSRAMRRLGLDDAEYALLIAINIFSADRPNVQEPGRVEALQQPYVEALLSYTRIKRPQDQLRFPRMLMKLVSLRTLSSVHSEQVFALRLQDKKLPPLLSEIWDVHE

| SMILES | EC50 [1, 3] | IC50 [2] | EC50 [1] |
| --- | --- | --- | --- |
| CCC1(O)CCN(C(=O)CC[C@@H](C)[C@H]2CC[C@H]3[C@@H]4CC=C5C[C@@H](O)CC[C@]5(C)[C@H]4[C@@H](O)C[C@]23C)CC1 [Example 158, (R)-4-((3S,8S,9S,10R,11S,13R,14S,17R)-3,11-dihydroxy-10,13-dimethyl-2,3,4,7,8,9,10,11,12,13,14,15,16,17-tetradecahydro-1H-cyclopenta[a]phenanthren-17-yl)-1-(4-ethyl-4-hydroxypiperidin-1-yl)pentan-1-one] | < 250 nM | 250 to 1000 nM |  |
| C[C@H](CCc1ncccc1C(C)(C)O)[C@H]1CC[C@H]2[C@@H]3CC=C4C[C@@H](O)CC[C@]4(C)[C@H]3CC[C@]12C [Example 248, (3S,8S,9S,10R,13R,14S,17R)-17-((R)-4-(3-(2-hydroxypropan-2-yl)pyridin-2-yl)butan-2-yl)-10,13-dimethyl-2,3,4,7,8,9,10,11,12,13,14,15,16,17-tetradecahydro-1H-cyclopenta[a]phenanthren-3-ol] |  | < 250 nM | < 250 nM |
| C[C@H](CCC(=O)N1CCC[C@@H]1C)[C@H]1CC[C@H]2[C@@H]3CC=C4C[C@@H](O)CC[C@]4(C)[C@H]3CC[C@]12C [Example 112, (R)-4-((3S,8S,9S,10R,13R,14S,17R)-3-hydroxy-10,13-dimethyl-2,3,4,7,8,9,10,11,12,13,14,15,16,17-tetradecahydro-1H-cyclopenta[a]phenanthren-17-yl)-1-((S)-2-methylpyrrolidin-1-yl)pentan-1-one] | 250 to 1000 nM | < 250 nM |  |
| C[C@H](CCC(=O)N1CC2(C1)CC(C)(O)C2)[C@H]1CC[C@H]2[C@@H]3CC=C4C[C@@H](O)CC[C@]4(C)[C@H]3CC[C@]12C [Example 101, (R)-4-((3S,8S,9S,10R,13R,14S,17R)-3-hydroxy-10,13-dimethyl-2,3,4,7,8,9,10,11,12,13,14,15,16,17-tetradecahydro-1H-cyclopenta[a]phenanthren-17-yl)-1-(6-hydroxy-6-methyl-2-azaspiro[3.3]heptan-2-yl)pentan-1-one] | > 10000 nM | < 250 nM |  |
| C[C@H](CCC(=O)N1CCC[C@@H](c2ccccc2)C1)[C@H]1CC[C@H]2[C@@H]3CC=C4C[C@@H](O)CC[C@]4(C)[C@H]3CC[C@]12C [Example 76, (R)-4-((3S,8S,9S,10R,13R,14S,17R)-3-hydroxy-10,13-dimethyl-2,3,4,7,8,9,10,11,12,13,14,15,16,17-tetradecahydro-1H-cyclopenta[a]phenanthren-17-yl)-1-((S)-3-phenylpiperidin-1-yl)pentan-1-one] | 1000 to 10000 nM | < 250 nM |  |
| C[C@H](CCC(=O)N1CCC[C@H](c2ccccc2)C1)[C@H]1CC[C@H]2[C@@H]3CC=C4C[C@@H](O)CC[C@]4(C)[C@H]3CC[C@]12C [Example 77, (R)-4-((3S,8S,9S,10R,13R,14S,17R)-3-hydroxy-10,13-dimethyl-2,3,4,7,8,9,10,11,12,13,14,15,16,17-tetradecahydro-1H-cyclopenta[a]phenanthren-17-yl)-1-((R)-3-phenylpiperidin-1-yl) pentan-1-one] | 1000 to 10000 nM | < 250 nM |  |
| CC[C@@]1(OC)CCCN(C(=O)CC[C@@H](C)[C@H]2CC[C@H]3[C@@H]4CC=C5C[C@@H](O)CC[C@]5(C)[C@H]4CC[C@]23C)C1 [Example 201, (R)-1-((R)-3-ethyl-3-methoxypiperidin-1-yl)-4-((3S,8S,9S,10R,13R,14S,17R)-3-hydroxy-10,13-dimethyl-2,3,4,7,8,9,10,11,12,13,14,15,16,17-tetradecahydro-1H-cyclopenta[a]phenanthren-17-yl)pentan-1-one] | 1000 to 10000 nM | < 250 nM |  |
| C[C@H](OC(=O)C(=O)N1CCC1)[C@H]1CC[C@H]2[C@@H]3CC=C4C[C@@H](O)CC[C@]4(C)[C@H]3CC[C@]12C [Example 155, (1S)-1-[(1S,3aS,3bS,7S,9aR,9bS,11aS)-7-hydroxy-9a,11a-dimethyl-1H,2H,3H,3aH,3bH,4H,6H,7H,8H,9H,9aH,9bH,10H,11H,11aH-cyclopenta[a]phenanthren-1-yl]ethyl 2-(azetidin-1-yl)-2-oxoacetate] | > 10000 nM | 1000 to 10000 nM |  |
| C[C@H](CCC(=O)N1CCC(C(O)(C(F)(F)F)C(F)(F)F)CC1)[C@H]1CC[C@H]2[C@@H]3CC=C4C[C@@H](O)CC[C@]4(C)[C@H]3CC[C@]12C [Example 99, (R)-1-(4-(1,1,1,3,3,3-hexafluoro-2-hydroxypropan-2-yl)piperidin-1-yl)-4-((3S,8S,9S,10R,13R,14S,17R)-3-hydroxy-10,13-dimethyl-2,3,4,7,8,9,10,11,12,13,14,15,16,17-tetradecahydro-1H-cyclopenta[a]phenanthren-17-yl)pentan-1-one] | > 10000 nM | < 250 nM |  |
| Cc1c(N2CCN(C(=O)CC[C@@H](C)[C@H]3CC[C@H]4[C@@H]5CC=C6C[C@@H](O)CC[C@]6(C)[C@H]5CC[C@]34C)CC2)cnn1C [Example 603, (R)-1-(4-(1,5-dimethyl-1H-pyrazol-4-yl)piperazin-1-yl)-4-((3S,8S,9S,10R,13R,14S,17R)-3-hydroxy-10,13-dimethyl-2,3,4,7,8,9,10,11,12,13,14,15,16,17-tetradecahydro-1H-cyclopenta[a]phenanthren-17-yl)pentan-1-one] | > 10000 nM | < 250 nM |  |
| C[C@H](OC(=O)C(=O)N1CCCC1)[C@H]1CC[C@H]2[C@@H]3CC=C4C[C@@H](O)CC[C@]4(C)[C@H]3CC[C@]12C [Example 198, (S)-1-((3S,8S,9S,10R,13S,14S,17S)-3-hydroxy-10,13-dimethyl-2,3,4,7,8,9,10,11,12,13,14,15,16,17-tetradecahydro-1H-cyclopenta[a]phenanthren-17-yl)ethyl 2-oxo-2-(pyrrolidin-1-yl)acetate] | 1000 to 10000 nM | < 250 nM |  |
| CNC(=O)C1(C)CCN(C(=O)CC[C@@H](C)[C@H]2CC[C@H]3[C@@H]4CC=C5C[C@@H](O)CC[C@]5(C)[C@H]4CC[C@]23C)CC1 [Example 86, 1-((R)-4-((3S,8S,9S,10R,13R,14S,17R)-3-hydroxy-10,13-dimethyl-2,3,4,7,8,9,10,11,12,13,14,15,16,17-tetradecahydro-1H-cyclopenta[a]phenanthren-17-yl)pentanoyl)-N,4-dimethylpiperidine-4-carboxamide] | > 10000 nM | 250 to 1000 nM |  |
| CC[C@@]1(O)CCCN(C(=O)CC[C@@H](C)[C@H]2CC[C@H]3[C@@H]4CC=C5C[C@@H](O)CC[C@]5(C)[C@H]4CC[C@]23C)C1 [Example 106, (4R)-1-(3-ethyl-3-hydroxypiperidin-1-yl)-4-((3S,8S,9S,10R,13R,14S,17R)-3-hydroxy-10,13-dimethyl-2,3,4,7,8,9,10,11,12,13,14,15,16,17-tetradecahydro-1H-cyclopenta[a]phenanthren-17-yl)pentan-1-one] | 250 to 1000 nM | < 250 nM |  |
| COC(=O)N1CCN(C(=O)CC[C@@H](C)[C@H]2CC[C@H]3[C@@H]4CC=C5C[C@@H](O)CC[C@]5(C)[C@H]4CC[C@]23C)C[C@@H]1C [Example 566, Methyl (2S)-4-[(4R)-4-[(1R,3aS,3bS,7S,9aR,9bS,11aR)-7-hydroxy-9a,11a-dimethyl-1H,2H,3H,3aH,3bH,4H,6H,7H,8H,9H,9aH,9bH,10H,11H,11aH-cyclopenta[a]phenanthren-1-yl]pentanoyl]-2-methylpiperazine-1-carboxylate] | > 10000 nM | < 250 nM |  |
| C[C@H](CCC(=O)N1CCN(c2ncncc2O)CC1)[C@H]1CC[C@H]2[C@@H]3CC=C4C[C@@H](O)CC[C@]4(C)[C@H]3CC[C@]12C [Example 630, (R)-4-((3S,8S,9S,10R,13R,14S,17R)-3-hydroxy-10,13-dimethyl-2,3,4,7,8,9,10,11,12,13,14,15,16,17-tetradecahydro-1H-cyclopenta[a]phenanthren-17-yl)-1-(4-(5-hydroxypyrimidin-4-yl)piperazin-1-yl)pentan-1-one] | > 10000 nM | < 250 nM |  |
| C[C@H](CCC(=O)N1CCN(c2cccnn2)CC1)[C@H]1CC[C@H]2[C@@H]3CC=C4C[C@@H](O)CC[C@]4(C)[C@H]3CC[C@]12C [Example 303, (4R)-4-[(1R,3aS,3bS,7S,9aR,9bS,11aR)-7-hydroxy-9a,11a-dimethyl-1H,2H,3H,3aH,3bH,4H,6H,7H,8H,9H,9aH,9bH,10H,11H,11aH-cyclopenta[a]phenanthren-1-yl]-1-[4-(pyridazin-3-yl)piperazin-1-yl]pentan-1-one] | > 10000 nM | < 250 nM |  |
| C[C@H](CCC(=O)N1CCC2(CC1)COC2)[C@H]1CC[C@H]2[C@@H]3CC=C4C[C@@H](O)CC[C@]4(C)[C@H]3CC[C@]12C [Example 80, (R)-4-((3S,8S,9S,10R,13R,14S,17R)-3-hydroxy-10,13-dimethyl-2,3,4,7,8,9,10,11,12,13,14,15,16,17-tetradecahydro-1H-cyclopenta[a]phenanthren-17-yl)-1-(2-oxa-7-azaspiro[3.5]nonan-7-yl)pentan-1-one] | 1000 to 10000 nM | < 250 nM |  |
| CNC(=O)NCC1(C)CCN(C(=O)CC[C@@H](C)[C@H]2CC[C@H]3[C@@H]4CC=C5C[C@@H](O)CC[C@]5(C)[C@H]4CC[C@]23C)CC1 [Example 364, 1-((1-((R)-4-((3S,8S,9S,10R,13R,14S,17R)-3-hydroxy-10,13-dimethyl-2,3,4,7,8,9,10,11,12,13,14,15,16,17-tetradecahydro-1H-cyclopenta[a]phenanthren-17-yl)pentanoyl)-4-methylpiperidin-4-yl)methyl)-3-methylurea] | > 10000 nM | < 250 nM |  |
